Target: T1, farnesyl transferase (Homo sapiens, UniProt P49354+P49356)
T1 construct: This enzyme has been partially purified from human THP1 cells; endogenous in cells; host or cells: human THP1 cells (enzyme partially purified from them)
Experiment: test for inhibition of farnesyl transferase by scintillation proximity assay (SPA)
Format: biochemical
Conditions: partially purified Ftase from human THP1 cells, 60 minutes at 37° C., BLB and 3H FPP substrates
Method: The principle of the SPA (Scintillation Proximity Assay) technology is applied to the assay of the enzymatic activity of farnesyl transferase. According to this method, the farnesyl transferase inhibiting activity is determined by the quantity of [^3 H] farnesyl transferred from [^3 H] farnesyl pyrophosphate, ^3 H FPP, to a biotinylated acceptor substrate.
Method used to detect the active metabolites: test for inhibition of farnesyl transferase by scintillation proximity assay (SPA)
The donor substrate, farnesyl pyrophosphate, is labelled with tritium ^3 H FPP. […] The radiolabelled peptide excites the beads which then emit light which is quantified in a solid-liquid scintillation counter (Topcount®, Packard).
The plate is incubated for 60 minutes at 37° C. and the reaction is stopped by adding 150 μl of stopping reagent containing the SPA beads. The plate is sealed with an adhesive film and left for 30 minutes at room temperature in order to reach equilibrium, and then counted in the Topcount counter. […] The IC50 values of the compounds are calculated by nonlinear regression.

With CC(C)C1CCC2C1(C)CCC1(C)C3=CCC4C(C)(C(=O)O)C(O)C(O)C(O)C4(COP(=O)(O)O)C3CCC21C (stereo not shown) [Example 1] the IC50 was 830 nM.

— patent publication US5849724A, “Microorganism of genus chrysosporium for use in preparing farnesyl transferase inhibitors” (Rhone-Poulenc Rorer S.A., priority 1995, dated 1998)
